Where two headings read alike, the source gives them in different places.
Key:
[1] = target: T1, p56lck GST-SH2 (lck SH2 domain) (Homo sapiens, UniProt P06239); assay: Receptor-ligand equilibrium binding constants by surface plasmon resonance (biosensor), lck SH2 domain
T1 construct: GST (N)

[2] = tested on: Inter-leukin 2 (IL-2) production by activated Human Primary T Lymphocytes; assay: Primary T cell assay: inhibition of IL-2 production by activated human primary CD4 positive T lymphocytes; assay type: cell-based; conditions: Table 5, mean IC50 value, CD4 positive T cells activated with anti-CD3/anti-CD28, IL-2 by ELISA, read-out: IC50 (blocking IL-2 production)
Method: Summary of Primary T Cell Assay.
Inhibitors of the lck SH2 domain were assayed for their ability to block Inter-leukin 2 (IL-2) production by activated Human Primary T Lymphocytes. Peripheral blood mononuclear cells were isolated from whole blood by centrifugation in ficoll-Pague partitioning medium. CD4 positive cells were purified using negative selection. […] The compounds, at the appropriate dilutions, were added, and the cells were incubated for 60 minutes at 37° C. The CD4 positive T cells were then activated by the addition of anti-CD3 (60 ng/mL), anti CD28 (500 ng/mL) and goat anti mouse IgG coated beads, and incubated overnight at 37° C. The cells were pelleted, and the supernatents assayed for IL-2 by ELISA.
As SH2 domain containing proteins are intracellular, any therapeutic agent must be able to cross biological membranes. […] These characteristics may be quantified by observing inhibition in IL-2 production in human blood CD4 positive T-lymphocytes after T cell receptor and CD28 cross-linking.

[3] = Table 1, compounds of formula (II)

T1 sequence (P06239 127-224 limits assumed): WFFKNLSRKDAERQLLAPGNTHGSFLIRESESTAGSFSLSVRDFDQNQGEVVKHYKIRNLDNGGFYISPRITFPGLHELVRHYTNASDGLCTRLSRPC

Structure (SMILES)	Kd [1, 3] [µM]	IC50 ([2]; Homo sapiens, CD4 positive) [µM]	Kd ([1]; Table 2, compounds of formula (III)) [µM]	IC50 [2] [µM]	IC50 ([2]; Homo sapiens) [µM]
COc1ccc(Cn2ccc(C)c(NC(=O)C(Cc3ccc(C(C)(C)C(=O)O)cc3)NC(=O)Cc3ccc(C(C)(C)C)cc3)c2=O)cc1 (stereo not shown) [Compound 173]	0.31	93	–	–	–
CCCCCCn1ccc(C)c(NC(=O)C(Cc2ccc(C(C)(C)C(=O)O)cc2)NC(=O)Cc2ccc(C(F)(F)F)cc2)c1=O (stereo not shown) [Compound 209]	0.19	92	–	–	–
COc1ccc(Cn2ccc(C)c(NC(=O)C(Cc3ccc(C(C)(C)C(=O)O)cc3)NC(=O)C(C)(C)c3ccccc3)c2=O)cc1 (stereo not shown) [Compound 180]	2.5	82	–	–	–
COc1ccc(Cn2ccc(C)c(NC(=O)C(Cc3ccc(C(C)(C)C(=O)O)cc3)NC(=O)C(C)(C)c3ccc(C(F)(F)F)cc3)c2=O)cc1 (stereo not shown) [Compound 217]	1.3	70	–	–	–
CCc1ccc(Cn2ccc(C)c(NC(=O)C(Cc3ccc(C(C)(C)C(=O)O)cc3)NC(=O)Cc3ccc4ccccc4c3)c2=O)cc1 (stereo not shown) [Compound 150]	4.6	60	–	–	–
COc1ccc(Cn2ccc(C)c(NC(=O)C(Cc3ccc(C(C)(C)C(=O)O)cc3)NC(=O)Cc3cccc4ccccc34)c2=O)cc1 (stereo not shown) [Compound 169]	0.52	116	–	–	–
CCC(CC)(C(=O)NC(Cc1ccc(C2(C(=O)O)CCCC2)cc1)C(=O)Nc1c(C)ccn(Cc2ccc(OC)cc2)c1=O)c1ccc2ccccc2c1 (stereo not shown) [Compound 125]	> 15	29	–	–	–
COc1ccc(Cn2ccc(C)c(NC(=O)C(Cc3ccc(C(C)(C)C(=O)O)cc3)NC(=O)C(C)(C)c3ccc(C(C)(C)C)cc3)c2=O)cc1 (stereo not shown) [Compound 186]	0.78	41	–	–	–
CCC(C(=O)N[C@@H](Cc1ccc(C(C)(C)C(=O)O)cc1)C(=O)Nc1c(C)ccn(Cc2ccc(OC)cc2)c1=O)c1cccc2ccccc12 (stereo partly shown) [Compound 126]	0.68	39	–	–	–
Cc1ccn(CC2(c3ccccc3)CC2)c(=O)c1NC(=O)C(Cc1ccc(C(C)(C)C(=O)O)cc1)NC(=O)Cc1ccc2ccccc2c1 (stereo not shown) [Compound 214]	1.2	117	–	–	–
COc1ccc(Cn2ccc(C)c(NC(=O)C(Cc3ccc(C(C)(C)C(=O)O)cc3)NC(=O)Cc3ccc4ccccc4c3)c2=O)cc1C (racemic) [Compound 149, 3-[2'-(R,S)-(2""-Naphthylacetyl)amino-3'-[4"-(1'"-carboxy-1"-methyl)ethyl]benzene]propanoylamino-1-(4-methoxy-3-methylbenzyl)-4-methyl-2-pyridone]	3.8	54	–	–	–
COc1ccc(Cn2cc(Br)c(C)c(NC(=O)[C@H](Cc3ccc(C(C)(C)C(=O)O)cc3)NC(=O)Cc3ccc4ccccc4c3)c2=O)cc1 [Compound 220, 3-[2'-(S)-(2""-Naphthylacetyl)amino-3'-[4"-(1'"-carboxy-1'"-methyl)ethyl]benzene]propanoylamino-5-bromo-1-(4-methoxybenzyl)-4-methyl-2-pyridone]	0.17	31	–	–	–
COc1ccc(Cn2ccc(C)c(NC(=O)C(Cc3ccc(C(C)(C)C(=O)O)cc3)NC(=O)COc3cccc4ccccc34)c2=O)cc1 (stereo not shown) [Compound 174]	1	67	–	–	–
CCc1cn(Cc2ccc(OC)cc2)c(=O)c(NC(=O)C(Cc2ccc(C(C)(C)C(=O)O)cc2)NC(=O)Cc2ccc3ccccc3c2)c1C (stereo not shown) [Compound 222]	1.2	69	–	–	–
COc1ccc(Cn2ccc(C)c(NC(=O)C(Cc3ccc(C(C)(C)C(=O)O)cc3)NC(=O)COc3cccc4c(N(C)C)cccc34)c2=O)cc1 (stereo not shown) [Compound 175]	0.78	108	–	–	–
COc1ccc(Cn2ncc(C)c(NC(=O)C(Cc3ccc(C(C)(C)C(=O)O)cc3)NC(=O)Cc3ccc4ccccc4c3)c2=O)cc1 (racemic) [Compound 242, 4-[2'-(R,S)-(2""-Naphthylacetyl)amino-3'-[4"-(1'"-carboxy-1'"-methyl)ethyl]benzene]propanoylamino-2-(4-methoxybenzyl)-5-methyl-3-pyridazinone]	–	60	0.53	–	–
COc1ccc(Cn2ccc(C)c(NC(=O)[C@H](Cc3ccc(C(C)(C)C(=O)O)cc3)NC(=O)N(C)c3cccc4ccccc34)c2=O)cc1 [Compound 133]	0.78	112	–	–	–
COc1ccc(Cn2ccc(C)c(NC(=O)[C@H](Cc3ccc(C(C)(C)C(=O)O)cc3)NC(=O)Cc3ccc(Br)c4ccccc34)c2=O)cc1 [Compound 111]	0.51	64	–	–	–
CCCCCCn1ccc(C)c(NC(=O)C(Cc2ccc(C(C)(C)C(=O)O)cc2)NC(=O)COc2ccccc2)c1=O (stereo not shown) [Compound 205]	1.9	136	–	–	–
COc1ccc(Cn2ccc(C)c(NC(=O)[C@H](Cc3ccc(C(C)(C)C(=O)O)cc3)NC(=O)Cc3ccc(NCc4ccccc4)cc3)c2=O)cc1 [Compound 130]	0.84	181	–	–	–

Structure (SMILES)	Kd [1, 3] [µM]	IC50 ([2]; Homo sapiens, CD4 positive) [µM]	Kd ([1]; Table 2, compounds of formula (III)) [µM]	IC50 [2] [µM]	IC50 ([2]; Homo sapiens) [µM]
CCOc1ccc(Cn2ccc(C)c(NC(=O)C(Cc3ccc(C(C)(C)C(=O)O)cc3)NC(=O)Cc3cccc4ccccc34)c2=O)cc1 (stereo not shown) [Compound 140]	0.63	82	–	–	–
Cc1ccn(CCCc2ccccc2)c(=O)c1NC(=O)C(Cc1ccc(C(C)(C)C(=O)O)cc1)NC(=O)Cc1cccc2ccccc12 (stereo not shown) [Compound 182]	2.1	64	–	–	–
Cc1ccn(CC2CCCCC2)c(=O)c1NC(=O)C(Cc1ccc(C(C)(C)C(=O)O)cc1)NC(=O)C(C)(C)c1ccc2ccccc2c1 (stereo not shown) [Compound 196]	5.4	29	–	–	–
Cc1ccn(Cc2ccc3c(c2)OCO3)c(=O)c1NC(=O)C(Cc1ccc(C(C)(C)C(=O)O)cc1)NC(=O)Cc1ccc2ccccc2c1 (stereo not shown) [Compound 155]	0.37	76	–	–	–
COc1ccc(Cn2ccc(C)c(NC(=O)[C@H](Cc3ccc(C(C)(C)C(=O)O)cc3)NC(=O)C(C)(C)c3cccc4ccccc34)c2=O)cc1 [Compound 119]	3.6	52	–	–	–
CCOc1ccc(Cn2ccc(C)c(NC(=O)C(Cc3ccc(C(C)(C)C(=O)O)cc3)NC(=O)C(C)(C)c3cccc4ccccc34)c2=O)cc1 (stereo not shown) [Compound 141]	8.8	49	–	–	–
COc1ccc(Cn2ccc(C)c(NC(=O)[C@H](Cc3ccc(C4(C(=O)O)CC4)cc3)NC(=O)Cc3ccc4ccccc4c3)c2=O)cc1 [Compound 218, 3-[2'-(S)-(2""-Naphthylacetyl)amino-3'-[4"-(1'"-carboxy)cyclopropyl]benzene]propanoylamino-1-(4-methoxybenzyl)-4-methyl-2-pyridone]	1.8	90	–	–	–
COc1ccc(Cn2ccc(C)c(NC(=O)C(Cc3ccc(C(C)(C)C(=O)O)cc3)NC(=O)Cc3cccc4ccccc34)c2=O)cc1 (stereo not shown) [Compound 216]	190	–	–	193	–
COc1ccc(Cn2ccc(C)c(NC(=O)C(Cc3ccc(C(C)(C)C(=O)O)cc3)NC(=O)Cc3ccc(Oc4ccccc4)cc3)c2=O)cc1 (stereo not shown) [Compound 172]	0.66	96	–	–	–
COc1ccc(Cn2ccc(C)c(N(C)C(=O)C(Cc3ccc(C(C)(C)C(=O)O)cc3)NC(=O)Cc3ccc4ccccc4c3)c2=O)cc1 (stereo not shown) [Compound 151]	> 200	67	–	–	–
COc1ccc(Cn2ccc(C)c(NC(=O)[C@H](Cc3ccc(C(C)(C)C(=O)O)cc3)NC(=O)Cc3cccc4ccccc34)c2=O)cc1 [Compound 2, 3-[2'-(S)-(1"-Naphthylacetyl)amino-3'-[4'"-(1'"-carboxy-1'"-methyl)ethyl]benzene]propanoylamino-1-(4-methoxybenzyl)-4-methyl-2-pyridone]	0.57	96	–	–	–
COc1ccc(C(C)n2ccc(C)c(NC(=O)C(Cc3ccc(C(C)(C)C(=O)O)cc3)NC(=O)Cc3cccc4ccccc34)c2=O)cc1 (stereo not shown) [Compound 178]	0.68	65	–	–	–
CCCCCCn1cc(-c2ccccc2)c(C)c(NC(=O)C(Cc2ccc(C(C)(C)C(=O)O)cc2)NC(=O)Cc2ccc3ccccc3c2)c1=O (stereo not shown) [Compound 231]	< 8	57	–	–	–
COc1ccc(C(C)n2ccc(C)c(NC(=O)C(Cc3ccc(C(C)(C)C(=O)O)cc3)NC(=O)C(C)(C)c3ccc4ccccc4c3)c2=O)cc1 (stereo not shown) [Compound 184]	1.3	53	–	–	–
CCCCCCn1ccc(C)c(NC(=O)C(Cc2ccc(C(C)(C)C(=O)O)cc2)NC(=O)Cc2ccc(OC)cc2)c1=O (stereo not shown) [Compound 208]	0.8	279	–	–	–
COc1ccc(Cn2ccc(C)c(NC(=O)[C@H](Cc3ccc(C(C)(C)C(=O)O)cc3)NC(=O)[C@@H](C)c3ccc4ccccc4c3)c2=O)cc1 [Compound 46]	2.3	58	–	–	–
COc1ccc(Cn2ccc(C)c(NC(=O)[C@H](Cc3ccc(C(C)(C)C(=O)O)cc3)NC(=O)C(C)(C)c3ccc(CC(C)C)cc3)c2=O)cc1 [Compound 124]	1.5	42	–	–	–
Cc1ccn(CC2CCCCC2)c(=O)c1NC(=O)C(Cc1ccc(C(C)(C)C(=O)O)cc1)NC(=O)Cc1ccc2ccccc2c1 (stereo not shown) [Compound 195]	1.1	63	–	–	–
Cc1ccn(CC2CCCCC2)c(=O)c1NC(=O)C(Cc1ccc(C(C)(C)C(=O)O)cc1)NC(=O)Cc1cccc2ccccc12 (stereo not shown) [Compound 194]	2.3	84	–	–	–
COc1ccc(Cn2ccc(C)c(NC(=O)[C@H](Cc3ccc(C(C)(C)C(=O)O)cc3)NC(=O)C(C)(C)c3ccc4ccccc4c3)c2=O)cc1 [Compound 107]	–	–	–	–	48

— US6284768A, “Src family SH2 domain inhibitors” (Boehringer Ingelheim Pharmaceuticals, Inc., priority 1999, dated 2001)
